SMILES strings stand for the structures.

The assay relates to IL-8 release by HGF-1 cells. The experiment in a line: Anti-inflammatory action in HGF-1 cells: IL-8 release after PG-LPS stimulation (Example TS1). The format is cell-based. The conditions noted are these: Homo sapiens, co-incubation with 10 μg/ml PG-LPS, 6 h, % IL-8 release vs PG-LPS control, read-out: IL-8 T/C [%]. As for the experimental part: Anti-inflammatory action in human gingival fibroblastic cells (HGF-1)
DMEM containing 10% FBS, 1% penicillin/streptomycin and 4% glutamine was used as the medium. For determination of the anti-inflammatory action the cells were incubated with 10 μg/ml PG-LPS for 6 hrs. […] In each case 4 samples with two technical replicates were measured. In addition to this control the cells were co-incubated with
(a) 10 μg/ml PG-LPS and also with
After incubation the cell culture medium was transferred into an Eppendorf reaction vessel and at 4° C. for 10 min subjected to centrifugation (1000×g) in order to separate the cell debris. The supernatant was stored at −80° C. until analysis.

With `O=C(CCc1ccc(O)cc1)c1c(O)cc(O)cc1O` [Compound 4], the activity at 1 µM (HGF1, 1 μM test compound) turned out to be 106%. Also, for the setting “HGF1, 100 μM test compound”, the activity at 100 µM turned out to be 50%.

The values above are taken from patent US11759435B2, “Dihydrochalcone derivatives influencing inflammatory states” (SYMRISE AG, priority 2016, dated 2023).
